Measurements taken from a melting point compilation (Tetko et al.).

| SMILES | melting point |
| --- | --- |
| Nc1ccc(F)c(NS(=O)(=O)Cc2ccccc2)c1 | 172 to 174 °C |
| NC(=NO)c1ccc(-c2ccccc2)cc1 | 182 to 184 °C |
| O=C(O)c1cc(Br)cc([N+](=O)[O-])c1Cl | 226 to 228 °C |
| N#C/C=C/c1ccc(Cl)cc1 | 45 to 47 °C |
| CCCCn1c(N)c(NC2CCCC2)c(=O)[nH]c1=O | 250 to 252 °C |
| CCC(C)C(C(=O)O)c1ccccc1 (stereo not given) | 50 to 52 °C |
| CNc1ccc(N)c(C(F)(F)F)c1 | 86 to 88 °C |
| c1ccc(OC2CCNCC2)cc1 | 34 to 36 °C |
| CCc1nnc(-c2cccc(N)c2)o1 | 88 to 90 °C |
| Clc1ncnc2ccc(I)cc12 | 173 to 175 °C |
| Cc1ccc(C(=O)Nc2cccc(CN)c2)cc1 | 131 to 133 °C |
| CC(C)C(Oc1ccc(Br)cc1)C(=O)O (stereo not given) | 105 to 107 °C |
| Nc1cccc2c1CC(O)C2 (stereo not given) | 125 to 127 °C |
| O=C(O)c1cc(Cl)n[nH]c1=O | 212 to 214 °C |
| Cc1cc(Cl)c(N)c(C(=O)O)c1 | 201 to 203 °C |
| O=C(O)c1ccc(-n2cncn2)c(F)c1 | 285 to 287 °C |
| O=C(O)c1ccc(N2CCCCC2=O)cc1 | 213 to 215 °C |
| COC(=O)c1ccc(-c2ccc(C(=O)O)cc2)cc1 | 300 to 302 °C |
| Nc1ccc(OCc2ccccc2)nc1 | 42 to 44 °C |
| Cc1ccc(-c2csc(N)n2)o1 | 102 to 104 °C |
| Cc1ccc(N)cc1S(=O)(=O)N1CCCCC1 | 105 to 107 °C |
| CCC1(C)NC(=O)N(N)C1=O (stereo not given) | 153 to 155 °C |
| NC(=O)CCNc1cc(Cl)ncn1 | 165 to 167 °C |
| Cn1c(C=O)nc2ccccc21 | 119 to 122 °C |
| Cc1nn(C)c(C)c1NC(=O)C(C)Cl (stereo not given) | 120 to 122 °C |

| SMILES | melting point |
| --- | --- |
| CCOC(=O)C1CCN(S(=O)(=O)Cl)CC1 | 38 to 40 °C |
| NC(=NO)c1ccc2c(c1)CCO2 | 215 to 217 °C |
| CCCCCS(=O)(=O)CC(=O)O | 69 to 71 °C |
| CC1CC(N)C(=O)N1c1ccccc1 (stereo not given) | 77 to 79 °C |
| COc1ccc(NS(=O)(=O)c2cccs2)cc1 | 120 to 122 °C |
| N#Cc1ccnc(OCc2ccccc2)c1 | 74 to 76 °C |
| CC(C)Oc1ccc(S(=O)(=O)N(C)C)cc1N | 111 to 113 °C |
| CCOC(=O)C(=O)CC(=O)c1ccc2ccccc2c1 | 51 to 53 °C |
| O=c1c(C(O)(O)C(F)(F)F)coc2ccc(Cl)cc12 | 114 to 116 °C |
| COc1ccc(C(=O)Nc2ncc(C)s2)cc1N | 225 to 227 °C |
| OCc1nc2cc(Cl)ccc2s1 | 113 to 115 °C |
| NC(=NO)c1cc(Br)cs1 | 132 to 134 °C |
| Nc1nc(N)nc(CCl)n1 | 221 to 223 °C |
| N#Cc1ccc(S)c(Cl)c1 | 81 to 83 °C |
| O=C(O)CCN1C(=O)C2CCCCC2C1=O (stereo not given) | 81 to 83 °C |
| Cc1c(Cl)cc(N)cc1Cl | 55 to 57 °C |
| Nc1ncc(Cc2cccc(Br)c2)s1 | 105 to 107 °C |
| NC(=C[N+](=O)[O-])N1CCOCC1 | 236 to 238 °C |
| O=C(O)CCSCc1cn2ccccc2n1 | 95 to 98 °C |
| O=S(=O)(c1ccc(CBr)cc1)C(F)F | 57 to 61 °C |
| O=C(NC(C(=O)O)c1ccccc1)c1cccs1 (stereo not given) | 185 to 187 °C |
| CC(O)c1ccc(-n2cncn2)cc1 (stereo not given) | 90 to 92 °C |
| N#Cc1ccc(S(=O)(=O)Cl)c(C(F)(F)F)c1 | 70 to 72 °C |
| O=C1CCS(=O)(=O)c2cc(F)c(F)cc21 | 149 to 151 °C |
| Cc1oncc1C(=O)Nc1cccc(C(=O)O)c1 | 245 to 247 °C |

| SMILES | melting point |
| --- | --- |
| CC(C)C(=O)N(C)CC(=O)O | 109 to 111 °C |
| Cc1cc(C)c(C(N)=O)c(S)n1 | 167 to 170 °C |
| CCn1cc2ccc(N)cc2n1 | 97 to 99 °C |
| NS(=O)(=O)c1ccc(C(=O)O)cc1Cl | 231 to 233 °C |
| O=C(O)CCCCc1cccc(O)c1 | 115 to 117 °C |
| COC(=O)c1ccc(OCC#N)cc1 | 95 to 97 °C |
| Clc1cccc2c(CBr)csc12 | 84 to 86 °C |
| N#CCCNc1ccc2c(c1)OCCO2 | 83 to 85 °C |
| C#Cc1nc2ccccc2n1C | 82 to 84 °C |
| CCOC(=O)c1ccn2nc3ncccc3c2n1 | 209 to 211 °C |
| Cc1cccc(CSCC(=O)O)c1 | 74 to 76 °C |
| O=S1(=O)CC(SCc2ccccc2)c2ccccc21 (stereo not given) | 72 to 74 °C |
| Cc1c(C(=O)O)sc2nc(C(F)(F)F)ccc12 | 265 to 267 °C |
| Nc1ccc(-c2csc(N3CCOCC3)n2)cc1 | 174 to 176 °C |
| CC(=O)NCc1ccc(C(=O)O)cc1 | 188 to 190 °C |
| CC(Br)c1ccc([N+](=O)[O-])cc1 (stereo not given) | 33 to 35 °C |
| CCOC(=O)c1sc(-c2ccc(F)c(F)c2)nc1C | 81 to 83 °C |
| CC(=O)c1cc(C#N)c(S)nc1C | 127 to 129 °C |
| O=C(O)CN1CCC(=O)NC1=O | 197 to 199 °C |
| COC(=O)c1nc[nH]n1 | 180 to 182 °C |
| CC(=O)Nc1ccc(S(=O)(=O)N(C)CC(=O)O)cc1 | 225 to 227 °C |
| CC(C)NC(=O)CNS(=O)(=O)CCC(=O)O | 125 to 127 °C |
| O=Cc1ccc(Oc2ccc([N+](=O)[O-])cc2Cl)c(F)c1 | 81 to 83 °C |
| O=C(O)C1(c2cccc(C(F)(F)F)c2)CCOCC1 | 147 to 149 °C |
| Nc1nonc1C(=O)N1CCCC1 | 192 to 194 °C |

| SMILES | melting point |
| --- | --- |
| CC(O)c1ccc(N2CCNC(=O)C2)cc1Cl (stereo not given) | 186 to 188 °C |
| O=C(O)CN1CCCCC1=O | 169 to 171 °C |
| Cc1ccc(S(=O)(=O)N2CCCC(C(=O)O)C2)cc1 (stereo not given) | 149 to 151 °C |
| COc1ccc(CCCC(=O)O)cc1F | 63 to 65 °C |
| ClCc1cc(Cl)c2c(c1)OCCCO2 | 59 to 63 °C |
| Nc1nc(-c2cccc(Cl)c2)cs1 | 125 to 127 °C |
| CS(=O)(=O)c1ccc(C(N)=O)cc1 | 226 to 228 °C |
| NNc1nc(C(F)(F)F)cs1 | 122 to 124 °C |
| O=C(O)CCc1ccccc1[N+](=O)[O-] | 109 to 111 °C |
| N#Cc1ccccc1COc1ccc(C(=O)O)cc1 | 211 to 213 °C |
| Cc1ccc(C#N)nc1Br | 130 to 132 °C |
| COc1ccc(N(C(C)=O)c2nc(C=O)cs2)cc1 | 180 to 183 °C |
| CC(N)c1ccc(NC(=O)c2ccc(F)cc2)cc1 (stereo not given) | 110 to 112 °C |
| Cc1cc(C(=O)O)c2c(-c3ccco3)noc2n1 | 232 to 234 °C |
| CN(C)S(=O)(=O)c1ccc(Br)c(C(=O)O)c1 | 174 to 176 °C |
| Cc1cc(C)nc(-n2[nH]c(C(=O)O)cc2=O)n1 | 246 to 248 °C |
| COCCNc1nnnn1C | 59 to 61 °C |
| O=C(O)c1cc(F)ccc1-c1ccccc1 | 117 to 119 °C |
| Cc1nc(-c2ccc(Cl)cc2)cs1 | 119 to 121 °C |
| COc1cc(OC)cc(C(O)CN)c1 (stereo not given) | 92 to 94 °C |
| O=C(O)C1CC2COCC(C1)C2=O (stereo not given) | 196 to 198 °C |
| CCc1cc(Cl)n2nc(C(=O)OC)nc2n1 | 179 to 181 °C |
| O=C(O)c1cc(Br)cc(Cl)c1O | 207 to 209 °C |
| COc1cc(C)nc(C=O)c1 | 57 to 59 °C |
| N=c1[nH]cnn1-c1ccccc1 | 148 to 150 °C |

| SMILES | melting point |
| --- | --- |
| CCCCOc1ccc(C=CC(=O)O)cc1OCC | 109 to 111 °C |
| O=C(O)C1CCCN(C(=O)Nc2ccccc2)C1 (stereo not given) | 163 to 165 °C |
| Cc1nn(-c2ccccc2)c(CCl)c1C#N | 130 to 132 °C |
| Cc1cccc(-n2nc(C(=O)O)cc2-c2ccc(-c3ccccc3)cc2)c1 | 215 to 217 °C |
| Fc1ccc(-c2cc3ncnc(Cl)c3s2)cc1 | 202 to 206 °C |
| CN(C)c1ncc(Br)cc1C(=O)O | 143 to 145 °C |
| CCC(C)(C)NC(=O)C(Br)C(C)C (stereo not given) | 132 to 134 °C |
| CCN(CC)c1ccnc(NN)n1 | 84 to 86 °C |
| C=CCn1c(S)nc2sccc2c1=O | 212 to 214 °C |
| O=C(CCl)Nc1nnc(-c2ccccc2)o1 | 219 to 221 °C |
| O=S(=O)(Cl)c1cccnc1Cl | 42 to 44 °C |
| Cc1nn(C)c2[nH]nc(N)c12 | 135 to 137 °C |
| O=C(O)CCc1nnc(C2CCCC2)o1 | 62 to 64 °C |
| CC(C)S(=O)(=O)C(C)C(=O)O (stereo not given) | 96 to 98 °C |
| O=C1C=C(Br)C(=O)N1c1ccccc1 | 159 to 161 °C |
| c1cc2c(cn1)NCCCN2 | 121 to 123 °C |
| O=Cc1ccc(-c2cccs2)cc1F | 73 to 75 °C |
| O=C(O)c1ccccc1OCc1cscn1 | 117 to 121 °C |
| CCOC(=O)c1cc(N)c2c(c1)OCO2 | 68 to 70 °C |
| NC(=NO)c1cccs1 | 81 to 83 °C |
| NC(=O)N1CC(O)CC1C(=O)O (stereo not given) | 166 to 168 °C |
| COc1ccc(C(C)=O)cc1NC(C)=O | 120 to 122 °C |
| Cc1cccc2[nH]cc(CC(=O)O)c12 | 149 to 151 °C |
| Sc1nnc(-c2ccco2)o1 | 173 to 175 °C |
| CCOC(=O)COc1ccc(Cl)c2cccnc12 | 113 to 115 °C |

| SMILES | melting point |
| --- | --- |
| O=C(O)c1ccc2c(c1)C(=O)N(Cc1ccco1)C2=O | 172 to 176 °C |
| O=C(O)c1ccnc(N2CCCC2)n1 | 205 to 207 °C |
| Cc1c(-c2ccccc2)nc2ccccc2c1C(=O)O | 235 to 237 °C |
| COc1ccc(-c2nn(-c3ccccc3)cc2C=CC(=O)O)cc1OC | 162 to 164 °C |
| COc1ccc(S(=O)(=O)N2CCCCC2)cc1NC(=O)CCl | 115 to 130 °C |
| O=C(O)CC1Sc2ccc(C(F)(F)F)cc2NC1=O (stereo not given) | 236 to 238 °C |
| COc1cc(C(=O)O)cc2c1OCCO2 | 203 to 205 °C |
| O=C(O)C=CC1CCOCC1 | 134 to 136 °C |
| CC1CN(c2ccc(NC(=O)CCl)cc2)CC(C)O1 (stereo not given) | 175 to 177 °C |
| O=Cc1ccc(-c2ccc(Cl)cc2[N+](=O)[O-])o1 | 92 to 94 °C |
| Cc1ccc(C#N)c(OC2CCCC2)c1 | 66 to 68 °C |
| Cc1ccc(Nc2nnc(S)s2)cc1Cl | 210 to 212 °C |
| Fc1ccc(-c2nc(CCl)co2)cc1F | 59 to 61 °C |
| O=C1CCc2cc(O)ccc2N1 | 239 to 241 °C |
| O=C1CCCc2[nH]c(=O)c(C(=O)O)cc21 | 289 to 291 °C |
| NCCNC(=O)c1ccc(O)cc1 | 191 to 193 °C |
| O=C(O)C1CCCN1S(=O)(=O)c1cccs1 (stereo not given) | 99 to 101 °C |
| CCCCCCCC(=O)NCC(=O)O | 104 to 106 °C |
| O=C(Nc1cccc(-c2nnco2)c1)OCC(F)(F)F | 170 to 172 °C |
| CC(C)(C)OC(=O)Nc1ccoc1 | 139 to 141 °C |
